Experimental findings from patent US6686369B1, “α-hydrdroxylic acid derivatives, their production and use” (Abbott GmbH & Co., KG, priority 1996, dated 2004) are described below.

Broadly, the Ki is the dissociation constant of the complex between target and ligand, obtained from inhibition or displacement. A lower Ki goes with tighter binding.

Test [1] addresses T1, cloned human ETA receptor (Homo sapiens, UniProt P25101).
T1 construct: expressed in transfected cells; host or cells: CHO cells
T1 sequence (P25101 21-427): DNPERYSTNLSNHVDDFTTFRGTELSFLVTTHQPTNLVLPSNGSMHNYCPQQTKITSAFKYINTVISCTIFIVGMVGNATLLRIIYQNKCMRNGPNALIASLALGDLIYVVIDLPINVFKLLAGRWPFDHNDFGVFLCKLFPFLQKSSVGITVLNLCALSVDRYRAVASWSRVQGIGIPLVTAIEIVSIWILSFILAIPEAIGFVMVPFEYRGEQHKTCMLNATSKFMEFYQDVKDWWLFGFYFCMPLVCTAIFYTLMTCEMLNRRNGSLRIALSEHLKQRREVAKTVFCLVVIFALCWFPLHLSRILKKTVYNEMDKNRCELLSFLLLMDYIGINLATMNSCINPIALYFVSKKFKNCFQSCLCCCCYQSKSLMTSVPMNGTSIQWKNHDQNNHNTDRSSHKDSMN
Description: ETA receptor binding assay ([125I]-ET1, membranes of ETA receptor-expressing CHO cells). Conditions: CHO cell membranes, 25 pM [125I]-ET1, 25° C. As to the method:
(§1) For binding studies, cloned human ETA receptor-expressing CHO cells and guinea-pig cerebellar membranes with >60% ETB relative to ETA receptors were employed.
The ETA receptor-expressing CHO cells were grown in F12 medium with 10% fetal calf serum, 1% glutamine, 100 U/ml penicillin and 0.2% streptomycin (Gibco BRL, Gaithersburg, Md., USA). After 48 h, the cells were washed with PBS and incubated with 0.05% trypsin-containing PBS for 5 min. After neutralization with F12 medium, the cells were collected by centrifugation at 300×g. For cell lysis, the pellet was briefly washed with lysis buffer (5 mM Tris-HCl, pH 7.4 with 10% glycerol) and then incubated at a concentration of 10^7 cells/ml of lysis buffer at 4° C. for 30 min. The membranes were centrifuged at 20,000×g for 10 min, and the pellet was stored in liquid nitrogen.
(§2) For the ETA and ETB receptor binding assays, the membranes were suspended in incubation buffer (50 mM Tris-HCl, pH 7.4 with 5 mM MnCl2, 40 μg/ml bacitracin and 0.2% BSA) at a concentration of 50 μg of protein per assay mixture and incubated at 25° C. with 25 pM [125I [sic]]-ET1 (ETA receptor assay) or 25 pM [125I [sic]]-RZ3 (ETB receptor assay) in the presence and absence of test substance. The nonspecific binding was determined with 10^−7 M ET1. Filtration through GF/B glass fiber filters (Whatman, England) in a Skatron cell collector (Skatron, Lier, Norway) after 30 min separated the free and the bound radioligand, and the filters were washed with ice-cold Tris-HCl buffer, pH 7.4 with 0.2% BSA. The radioactivity collected on the filters was quantified using a Packard 2200 CA liquid scintillation counter.

For the next test, the target named is T2, ETB receptor (Cavia porcellus, UniProt H0VTF3).
T2 construct: Guinea-pig cerebella were homogenized in a Potter-Elvejhem homogenizer; from tissue; host or cells: guinea-pig cerebellum membranes
T2 sequence (H0VTF3 27-415): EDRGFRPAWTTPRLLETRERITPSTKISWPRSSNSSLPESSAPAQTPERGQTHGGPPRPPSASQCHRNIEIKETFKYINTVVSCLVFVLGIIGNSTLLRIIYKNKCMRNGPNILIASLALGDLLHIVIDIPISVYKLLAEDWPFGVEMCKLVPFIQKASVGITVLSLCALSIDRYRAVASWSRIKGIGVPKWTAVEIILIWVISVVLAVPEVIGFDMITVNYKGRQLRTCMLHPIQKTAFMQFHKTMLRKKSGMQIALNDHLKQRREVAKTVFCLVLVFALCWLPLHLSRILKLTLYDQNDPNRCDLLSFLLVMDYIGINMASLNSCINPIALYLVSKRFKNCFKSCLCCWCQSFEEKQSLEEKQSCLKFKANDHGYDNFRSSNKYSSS
Kind of test: ETB receptor binding assay ([125I]-RZ3, guinea-pig cerebellar membranes). Conditions: 25 pM [125I]-RZ3, 25° C. On the procedure:
as §1
Guinea-pig cerebella were homogenized in a Potter-Elvejhem homogenizer and obtained by differential centrifugation at 1000×g for 10 min and repeated centrifugation of the supernatant at 20,000×g for 10 min.
as §2

Turning to `Cc1cc(C)nc(OC(C(=O)O)C(C)(c2ccccc2)c2ccccc2)n1` (racemic) [Compound I-3, 2-(4,6-Dimethyl-2-pyrimidinyloxy)-3,3-diphenylbutyric Acid], the Ki in test [1] came out at 4 nM; on ETB receptor, 325 nM.
Consider `COc1cc(OC)nc(OC(C(=O)O)C(C)(c2ccccc2)c2ccccc2)n1` (centres unmarked) [Compound I-1], for which the Ki was 25 nM in test [1] and 950 nM on ETB receptor.
Consider `COc1cc(C)nc(OC(C(=O)O)C(C)(c2ccccc2)c2ccccc2)n1` (centres unmarked) [Compound I-2], for which the Ki in test [1] was found to be 3.5 nM; on ETB receptor it was 290 nM.
In the same order, the values of `CCC(c1ccccc1)(c1ccccc1)C(Oc1nc(OC)cc(OC)n1)C(=O)O` (centres unmarked) [Compound I-11] are 20 nM and 1400 nM.
In the same order, the values of `CCC(c1ccccc1)(c1ccccc1)C(Oc1nc(C)cc(OC)n1)C(=O)O` (centres unmarked) [Compound I-12] are 4 nM and 250 nM.
For `CCC(c1ccccc1)(c1ccccc1)C(Oc1nc(C)cc(C)n1)C(=O)O` (centres unmarked) [Compound I-15] the same measures were 4 nM and 540 nM.
In the case of `COc1cc(C)nc(OC(C(=O)O)C(CO)(c2ccccc2)c2ccccc2)n1` (centres unmarked) [Compound I-20], the figures for the Ki (in test [1]; on ETB receptor) were 5 nM and 445 nM, respectively.
